Laboratory results as given in the supplement of paper PMC13380429.

Columns and labels:
A549-ACE2 [1] = experiment: drug-induced phospholipidosis relative to tamoxifen; higher = more phospholipidosis
U2OS [2] = experiment: relative viability EC50 (midpoint between 100% and the lowest measured viability); higher = less toxic; settings: 72 h
Vero E6 [3] = experiment: as above; settings: 72 h
Calu-3 [4] = experiment: as above; settings: 72 h
HepG2 [5] = experiment: as above; settings: 72 h
Caco-2 [6] = experiment: as above; settings: 72 h
U2OS [7] = experiment: drug sensitivity score (DSS) for viability; higher = more toxic; extreme values may be limits of the assay; settings: 72 h
Vero E6 [8] = experiment: as above; settings: 72 h
Calu-3 [9] = experiment: as above; settings: 72 h
HepG2 [10] = experiment: as above; settings: 72 h
Caco-2 [11] = experiment: as above; settings: 72 h
[12] = test system: A549-ACE2 infected with SARS-CoV-2; experiment: morphology score (similarity to uninfected cells); higher = more like uninfected cells; settings: 24 h
[13] = test system: A549-ACE2 infected with SARS-CoV-2; experiment: cell count relative to DMSO; higher = less toxic; settings: 24 h
[14] = test system: A549-ACE2 infected with SARS-CoV-2; experiment: SARS-CoV-2 infection rate relative to DMSO; higher = more infection; settings: 24 h
U2OS [15] = experiment: cell viability relative to DMSO; higher = less toxic; settings: 72 h
Vero E6 [16] = experiment: as above; settings: 72 h
Calu-3 [17] = experiment: as above; settings: 72 h
HepG2 [18] = experiment: as above; settings: 72 h
Caco-2 [19] = experiment: as above; settings: 72 h
A549-ACE2 [20] = experiment: phospholipidosis EC50; higher = less potent phospholipidosis inducer

## COC[C@H](NC(=O)c1cnc(C)s1)C(=O)N[C@@H](COC)C(=O)N[C@@H](Cc1ccccc1)C(=O)[C@@]1(C)CO1 [oprozomib]
A549-ACE2 [1]; 0.3 µM, 24 h
  drug-induced phospholipidosis: -19.8%
A549-ACE2 [1]; 0.833333 µM, 24 h
  drug-induced phospholipidosis: -14.9%
A549-ACE2 [1]; 3.33333 µM, 24 h
  drug-induced phospholipidosis: -36.6%
U2OS [2]
  relative viability EC50: 0.109 µM
Vero E6 [3]
  relative viability EC50: 0.209 µM
Calu-3 [4]
  relative viability EC50: 0.0607 µM
HepG2 [5]
  relative viability EC50: 0.0661 µM
Caco-2 [6]
  relative viability EC50: 0.0409 µM
U2OS [7]
  drug sensitivity score: 23.3
Vero E6 [8]
  drug sensitivity score: 18.7
Calu-3 [9]
  drug sensitivity score: 25.9
HepG2 [10]
  drug sensitivity score: 26.4
Caco-2 [11]
  drug sensitivity score: 27.4
[12]; 0.1 µM
  morphology score: 0.41
[12]; 0.3 µM
  morphology score: 0.31
[12]; 1 µM
  morphology score: 0.24
[12]; 3 µM
  morphology score: 0.24
[13]; 0.1 µM
  cell count: 87%
[13]; 0.3 µM
  cell count: 83%
[13]; 1 µM
  cell count: 74%
[13]; 3 µM
  cell count: 59%
[14]; 0.1 µM
  SARS-CoV-2 infection rate: 76%
[14]; 0.3 µM
  SARS-CoV-2 infection rate: 95%
[14]; 1 µM
  SARS-CoV-2 infection rate: 64%
[14]; 3 µM
  SARS-CoV-2 infection rate: 33%
U2OS [15]; 1 nM
  cell viability: 103%
U2OS [15]; 10 nM
  cell viability: 93.8%
U2OS [15]; 100 nM
  cell viability: 53.9%
U2OS [15]; 1000 nM
  cell viability: 0.2%
U2OS [15]; 10000 nM
  cell viability: -0.3%
Vero E6 [16]; 1 nM
  cell viability: 106%
Vero E6 [16]; 10 nM
  cell viability: 103%
Vero E6 [16]; 100 nM
  cell viability: 72.4%
Vero E6 [16]; 1000 nM
  cell viability: 16.3%
Vero E6 [16]; 10000 nM
  cell viability: 4.2%
Calu-3 [17]; 1 nM
  cell viability: 92.4%
Calu-3 [17]; 10 nM
  cell viability: 102%
Calu-3 [17]; 100 nM
  cell viability: 25.4%
Calu-3 [17]; 1000 nM
  cell viability: 4.2%
Calu-3 [17]; 10000 nM
  cell viability: 4.5%
HepG2 [18]; 1 nM
  cell viability: 114%
HepG2 [18]; 10 nM
  cell viability: 99.3%
HepG2 [18]; 100 nM
  cell viability: 27.5%
HepG2 [18]; 1000 nM
  cell viability: 4.6%
HepG2 [18]; 10000 nM
  cell viability: -0.1%
Caco-2 [19]; 1 nM
  cell viability: 103%
Caco-2 [19]; 10 nM
  cell viability: 94.8%
Caco-2 [19]; 100 nM
  cell viability: 18.9%
Caco-2 [19]; 1000 nM
  cell viability: 8.5%
Caco-2 [19]; 10000 nM
  cell viability: 5.5%

## CC(C)(Cc1ccc2ccccc2c1)NC[C@@H](O)COc1cccc(Cl)c1C#N [NPS-2143]
A549-ACE2 [1]; 0.3 µM, 24 h
  drug-induced phospholipidosis: 14.7%
A549-ACE2 [1]; 0.3 µM, 48 h
  drug-induced phospholipidosis: 8.59%
A549-ACE2 [1]; 0.3 µM, 72 h
  drug-induced phospholipidosis: 10.7%
A549-ACE2 [1]; 0.833333 µM, 24 h
  drug-induced phospholipidosis: 30.2%
A549-ACE2 [1]; 0.833333 µM, 48 h
  drug-induced phospholipidosis: 25.2%
A549-ACE2 [1]; 0.833333 µM, 72 h
  drug-induced phospholipidosis: 13.3%
A549-ACE2 [1]; 3.33333 µM, 24 h
  drug-induced phospholipidosis: 98.4%
A549-ACE2 [1]; 3.33333 µM, 48 h
  drug-induced phospholipidosis: 96.8%
A549-ACE2 [1]; 3.33333 µM, 72 h
  drug-induced phospholipidosis: 94%
A549-ACE2 [1]; 6.66667 µM, 24 h
  drug-induced phospholipidosis: 140%
A549-ACE2 [1]; 6.66667 µM, 48 h
  drug-induced phospholipidosis: 135%
A549-ACE2 [1]; 6.66667 µM, 72 h
  drug-induced phospholipidosis: 135%
A549-ACE2 [1]; 10 µM, 24 h
  drug-induced phospholipidosis: 135%
A549-ACE2 [1]; 10 µM, 48 h
  drug-induced phospholipidosis: 132%
A549-ACE2 [1]; 10 µM, 72 h
  drug-induced phospholipidosis: 133%
A549-ACE2 [1]; 30 µM, 24 h
  drug-induced phospholipidosis: 14.7%
U2OS [2]
  relative viability EC50: 2.65 µM
Vero E6 [3]
  relative viability EC50: > 10 µM
Calu-3 [4]
  relative viability EC50: 3.32 µM
U2OS [7]
  drug sensitivity score: 3.9
Vero E6 [8]
  drug sensitivity score: 0.3
Calu-3 [9]
  drug sensitivity score: 5.3
HepG2 [10]
  drug sensitivity score: 2.3
Caco-2 [11]
  drug sensitivity score: 2.6
[12]; 0.3 µM
  morphology score: 0.09
[12]; 3 µM
  morphology score: 0.87
[12]; 10 µM
  morphology score: 0.11
A549-ACE2 [20]; 24 h
  phospholipidosis EC50: 1.06 µM
A549-ACE2 [20]; 48 h
  phospholipidosis EC50: 2.34 µM
A549-ACE2 [20]; 72 h
  phospholipidosis EC50: 3.1 µM
[13]; 0.3 µM
  cell count: 100%
[13]; 3 µM
  cell count: 113%
[13]; 10 µM
  cell count: 68%
[14]; 0.3 µM
  SARS-CoV-2 infection rate: 101%
[14]; 3 µM
  SARS-CoV-2 infection rate: 23%
[14]; 10 µM
  SARS-CoV-2 infection rate: 43%
U2OS [15]; 1 nM
  cell viability: 100%
U2OS [15]; 10 nM
  cell viability: 97.9%
U2OS [15]; 100 nM
  cell viability: 105%
U2OS [15]; 1000 nM
  cell viability: 96.1%
U2OS [15]; 10000 nM
  cell viability: 39.1%
Vero E6 [16]; 1 nM
  cell viability: 93.1%
Vero E6 [16]; 10 nM
  cell viability: 97.6%
Vero E6 [16]; 100 nM
  cell viability: 93.5%
Vero E6 [16]; 1000 nM
  cell viability: 99.6%
Vero E6 [16]; 10000 nM
  cell viability: 84.4%
Calu-3 [17]; 1 nM
  cell viability: 89.4%
Calu-3 [17]; 10 nM
  cell viability: 95.8%
Calu-3 [17]; 100 nM
  cell viability: 96.7%
Calu-3 [17]; 1000 nM
  cell viability: 103%
Calu-3 [17]; 10000 nM
  cell viability: 0.6%
HepG2 [18]; 1 nM
  cell viability: 100%
HepG2 [18]; 10 nM
  cell viability: 104%
HepG2 [18]; 100 nM
  cell viability: 103%
HepG2 [18]; 1000 nM
  cell viability: 101%
HepG2 [18]; 10000 nM
  cell viability: 53.9%
Caco-2 [19]; 1 nM
  cell viability: 99.1%
Caco-2 [19]; 10 nM
  cell viability: 101%
Caco-2 [19]; 100 nM
  cell viability: 103%
Caco-2 [19]; 1000 nM
  cell viability: 100%
Caco-2 [19]; 10000 nM
  cell viability: 50.5%
